Test results: patent US20120093836A1, “PHARMACEUTICAL COMPOSITIONS FOR TREATING METASTASIS” (UNIVERSIDAD DEL PAIS VASCO, priority 2009, published 2012)

Legend:
[1] = system: adhesion of MB16 cells to the HSE (hepatic sinusoidal endothelium); test: Tumor adhesion assay for C. albicans-induced tumor adhesion (fluorescence, BCECF-AM labelled MB16 cells on HSE); assay type: cell-based, mouse; conditions: IL-1β receptor blocked, added 15 minutes before MNF
Experimental: The adhesion was measured using the method based on the fluorescence measurement. The MB16 cells were resuspended in a solution of 2′,7′-bis-(2-carboxyethyl)-5.6-carboxyfluorescein acetoxymethyl ester (BCECF-AM) in DMEM-HEPES (40 μg/ml) and were incubated for 20 minutes at 37° C. The cells were then washed and resuspended in DMEM-HEPES at a concentration of 2×10^5 cells/ml. The autofluorescence of the HSE culture was determined.
Subsequently, the HSE cells were incubated with different strains and extracts of C. albicans (5×10^5 cells/well), MNF (2 μg carbohydrate/ml), EC (2 μg carbohydrate/ml), PF (2 μg protein/ml) or commercial mannan from Saccharomyces cerevisiae (100 μg/ml) for 8 hours. The non-treated HSE cells received basal medium as control. […]
Once the time of adhesion ended, the co-cultures were excited with light of wavelength 488 nm and the fluorescence emitted at 530 nm by the BCEF incorporated to the tumor cells in the scanning fluorometer in plate was recorded. […] Subsequently, 1 ml of the same adhesion medium was added in each well and the fluorescence emitted was read. Thus a relative value (in arbitrary units of fluorescence intensity) could be determined with respect to the number of tumor cells added. […]

[2] = system: TNF-α; test: Production of TNF-α by the HSE (ELISA of supernatants); assay type: cell-based, mouse; conditions: IL-1β receptor blocked
Experimental: The concentration of TNF-α and IL-18 in the supernatants was determined using a monoclonal antibody-based commercial ELISA kit (R&D Systems) following the manufacturer's instructions. The tumor adhesion assays of C. albicans-induced tumor adhesion and B16 melanoma tumor cell proliferation assays in response to C. albicans (both described above) were performed in collaboration with the company, Pharmakine S.L.
The stimulation of the endothelium causes a cascade of cytokine which ends with the expression of adhesion molecules such as the VCAM-1 (Mendoza (cited at supra) 1998, Vidal-Vanaclocha et al. 2000. PNAS, 97: 734-739) wherein the tumor cells are adhered. To know whether the process triggered by the MNF which as a consequence caused the increase of the adhesion of MB16 cells to the HSE was also mediated by cytokines, the concentration of TNF-α, the cytokine which is described as one of the first and most important cytokines acting in the proinflammatory cascade described in the HSE was measured.

## IL-Ra: IL-1β receptor antagonist molecule (Amgen Biologicals)
[1]
  effect on the increase of the tumor adhesion to the HSE induced by the MNF (in words): completely inhibits
[2]
  effect on the release of TNF-α by the endothelium stimulated by the mannoproteins of C. albicans (in words): partially reduces
